One assay concerns the target T1, tankyrase 1 (Homo sapiens, UniProt O95271).
T1 construct: tankyrase 1 (1,024-1, 327aa, SAM+PARP); made in house; host or cells: cell-free protein expression system
The experiment in a line: Tankyrase inhibitory activity test (ELISA, auto-poly(ADP-ribosyl)ation), TNKS1. In kind it is biochemical. The note with it: Flag-tagged tankyrase 1 (SAM+PARP), read-out: TNKS1 (inhibitory activity against tankyrase 1), IC50 rating. As for the experimental part: (§1) The enzymatic activity of tankyrase 1 and the enzymatic activity of tankyrase 2 were measured by the ELISA method based on assessment of auto-poly(ADP-ribosyl)ation to evaluate the tankyrase inhibitory activity of the compound prepared in each of Compound Examples (test compound) (inhibitory activity against tankyrase 1 (TNKS1) and inhibitory activity against tankyrase 2 (TNKS2)). First, Flag-tagged tankyrase 1 (1,024-1, 327aa, SAM+PARP) and tankyrase 2 (613-1, 116aa, ANK5+SAM+PARP) were synthesized with a cell-free protein expression system, and diluted with a Tris buffer solution (50 mM Tris-HCl (pH 8.0), 150 mM NaCl, 10% glycerol). 50 μL of the diluted tankyrase 1 or tankyrase 2 was added to a plate with an anti-FLAG M2 monoclonal antibody immobilized thereon (Anti-FLAG High-Sensitivity M2-Coated Plate) (Sigma-Aldrich), and the mixture was left to stand overnight at 4° C. Thereafter, the plate was washed four times with a PBS (PBST) buffer containing 0.1% TritonX-100.
(§2) Subsequently, the test compound diluted with an assay buffer (50 mM Tris-HCl (pH 8.0), 4 mM MgCl2, 0.2 mM DTT) (DMSO was used as a control) was added to each well of the plate, and the mixture was left to stand at room temperature for 10 minutes. Thereafter, a biotin-labeled NAD solution (225 μM NAD, 25 μM 6-Biotin-17-NAD (Travigen, Inc.)) was added and mixed as a donor substrate, and the mixture was reacted at 30° C. for 45 minutes. To blank wells was added distilled water instead of the biotin-labeled NAD solution. After the reaction, the plate was washed with a PBST buffer four times. Thereafter, HRP (horseradish peroxidase)-labeled streptavidin (Travigen, Inc.) was diluted with a PBS buffer by 1,000 times, and added to each well, and the mixture was reacted at room temperature for 20 minutes. The plate was washed with a PBST buffer four times, a chemiluminescent substrate solution TACS-Sapphire (Travigen, Inc.) was then added to each well, the mixture was reacted at room temperature for 20 minutes, and thechemiluminescence intensity was measured using a chemiluminescence measuring apparatus.
(§3) The residual enzymatic activity in the presence of the test compound was determined from the following expression. On the basis of the residual enzymatic activity at each of multiple concentrations of the test compound, the enzyme inhibitory activity was calculated in terms of a 50%-inhibition concentration (IC50 value) using data analysis software Origin (LightStone Corp.). Residual activity (%)={(chemiluminescence intensity with test compound added)−(chemiluminescence intensity of blank)}/{(chemiluminescence intensity of control)−(chemiluminescence intensity of blank))
(In general: In an ELISA, binding on a coated surface is turned into a signal by an enzyme label.)

Assay [1] relates to human colorectal cancer cell line COLO-320DM. The experiment in a line: Cell proliferation inhibitory activity test (Celltiter-Glo). It counts as cell-based. The note with it: 96 hours, read-out: COLO-320DM (cell proliferation inhibitory activity), G150 rating. As for the experimental part:
The cell proliferation inhibitory activity of the compound, which had been prepared in each of Compound Examples, against the human colorectal cancer cell line COLO-320DM was evaluated by Celltiter-Glo Luminescent Cell Viability Assay (Promega Corporation; G7573). COLO-320DM cells were cultured in RPMI-1640 medium containing 2 mM glutamine (Wako Pure Chemical Industries, Ltd; 189-02025) supplemented with 10% fetal bovine serum. The cultured cells were washed with PBS, and then dissociated with trypsin/EDTA, and a cell solution with 3×10^4 cells/mL was prepared.
Subsequently, the cell solution was seeded in a 96-well microplate (Thermo/Nunc Company; 136101) in an amount of 70 μL per well, and cultured overnight under the condition of 37° C. and 5% COz. The next day, a test compound solution obtained by diluting the test compound (DMSO solution) with a cell culture medium (final concentration of DMSO was 1%) was added in an amount of 10 μL per well, and the mixture was reacted under the condition of 37° C. and 5% CO2 for 96 hours (a 1% DMSO solution was used as a control). Thereafter, a Celltiter-Glo Luminescent Cell Viability Assay reagent was added (Promega Corporation; G7573) in an amount of 80 μL per well, the mixture was stirred with a shaker for 2 minutes while light was blocked with an aluminum foil, and the mixture was incubated at room temperature for 10 minutes.
Thereafter, a luminescence signal was measured with a luminometer (Biotech Company; Synergy). The ratio of cell proliferation in each compound addition group to cell proliferation in a control group containing no test compound solution, where cell proliferation in the control group is 100%, was determined, and the value of a compound concentration necessary for suppressing the amount of residual cells to 50% of that in the control (G150) was calculated as the cell proliferation inhibitory activity. For the COLO-320DM (cell proliferation inhibitory activity against COLO-320DM) of each test compound as measured through the above-mentioned method, a test compound having a G150 value of less than 1 μM was rated “A”, a test compound having a G150 value of 1 μM or more and less than 10 μM was rated “B”, a test compound having a G150 value of 10 μM or more was rated “C”, and an unevaluated test compound was designated as “NT”.
Background: ATP-based viability assays read luminescence as a measure of living cells.

Another assay deals with T2, tankyrase 2 (Homo sapiens, UniProt Q9H2K2).
T2 construct: tankyrase 2 (613-1, 116aa, ANK5+SAM+PARP); made in house; host or cells: cell-free protein expression system
T2 sequence (Q9H2K2 613-1166): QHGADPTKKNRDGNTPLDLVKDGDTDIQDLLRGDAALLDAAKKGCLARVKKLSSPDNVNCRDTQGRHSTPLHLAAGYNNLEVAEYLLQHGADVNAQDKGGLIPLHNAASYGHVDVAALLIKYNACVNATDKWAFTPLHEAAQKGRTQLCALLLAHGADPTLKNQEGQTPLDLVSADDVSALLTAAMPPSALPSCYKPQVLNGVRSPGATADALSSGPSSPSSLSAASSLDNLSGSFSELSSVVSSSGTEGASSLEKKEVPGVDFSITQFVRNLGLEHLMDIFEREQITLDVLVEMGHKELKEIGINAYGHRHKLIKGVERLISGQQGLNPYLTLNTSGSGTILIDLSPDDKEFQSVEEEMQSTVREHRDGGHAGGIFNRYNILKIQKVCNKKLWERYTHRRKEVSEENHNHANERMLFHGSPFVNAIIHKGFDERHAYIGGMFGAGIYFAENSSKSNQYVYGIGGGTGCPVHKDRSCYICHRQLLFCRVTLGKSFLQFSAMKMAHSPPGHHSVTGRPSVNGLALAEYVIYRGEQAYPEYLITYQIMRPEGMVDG
The assay can be described thus: Tankyrase inhibitory activity test (ELISA, auto-poly(ADP-ribosyl)ation), TNKS2. In kind it is biochemical. The note with it: Flag-tagged tankyrase 2 (ANK5+SAM+PARP), read-out: TNKS2 (inhibitory activity against tankyrase 2), IC50 rating. How it is done:
as §1, §2, §3

Bounds are passed on as bounds.

T1 sequence (O95271 1024-1327): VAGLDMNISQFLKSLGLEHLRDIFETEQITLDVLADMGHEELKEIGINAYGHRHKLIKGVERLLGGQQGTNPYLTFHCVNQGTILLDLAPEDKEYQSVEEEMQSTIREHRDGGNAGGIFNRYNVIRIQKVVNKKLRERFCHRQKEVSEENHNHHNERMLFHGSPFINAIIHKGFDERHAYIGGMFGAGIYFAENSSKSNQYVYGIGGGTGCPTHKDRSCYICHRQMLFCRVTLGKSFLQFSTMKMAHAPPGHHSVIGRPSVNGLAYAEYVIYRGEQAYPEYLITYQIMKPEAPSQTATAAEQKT

Take `CN1c2ccccc2C(=O)NC1c1c[nH]nc1-c1cccc(F)c1` (stereo not drawn) [Compound Example 102, 2-[3-(3-Fluorophenyl)-1H-pirazol-4-yl]-1-methyl-2,3-dihydroquinazolin-4-one]: the values for the IC50 (at tankyrase 1; in assay [1]; on tankyrase 2) were below 20 nM, 1000 to 10000 nM and below 20 nM, respectively.

Take `CCOc1ccc(-c2n[nH]cc2C2NC(=O)c3cccc(C)c3N2)cc1` (stereo not drawn) [Compound Example 103, 2-[5-(4-Ethoxyphenyl)-1H-pyrazol-4-yl]-8-methyl-2,3-dihydro-1H-quinazolin-4-one]: the IC50 is below 20 nM at tankyrase 1, 1000 to 10000 nM in assay [1] and below 20 nM on tankyrase 2.

`COc1ccc(-c2n[nH]nc2C2NC(=O)c3ccccc3N2C)cc1` (stereo not drawn) [Compound Example 104, 2-[5-(4-Methoxyphenyl)-2H-1,2,3-triazol-4-yl]-1-methyl-2,3-dihydroquinazolin-4-one]: the IC50 on tankyrase 1 is below 20 nM; in assay [1] it was 1000 to 10000 nM; at tankyrase 2, below 20 nM.

For the molecule `COc1ccc(-c2n[nH]nc2C2NC(=O)c3cccc(C)c3N2)cc1` (stereo not drawn) [Compound Example 105, 2-[5-(4-Methoxyphenyl)-2H-1,2,3-triazol-4-yl]-8-methyl-2,3-dihydro-1H-quinazolin-4-one], the IC50 on tankyrase 1 was below 20 nM; in assay [1] it was below 1000 nM; at tankyrase 2 it was below 20 nM.

On to `COc1ccc(-c2n[nH]nc2C2NC(=O)c3cccc4c3N2CC4)cc1` (stereo not drawn) [Compound Example 106, 11-[5-(4-Methoxyphenyl)-2H-1,2,3-triazol-4-yl]-1,10-diazatricyclo[6.3.1.0^4,12]dodeca-4(12),5,7-trien-9-one], for which the IC50 on tankyrase 1 was below 20 nM; in assay [1], 1000 to 10000 nM; at tankyrase 2, below 20 nM.

Regarding `[2H]C([2H])([2H])Oc1ccc(-c2n[nH]nc2C2NC(=O)c3cccc(C)c3N2)cc1` (stereo not drawn) [Compound Example 107, 8-Methyl-2-[5-(4-(trideuteriomethoxy)phenyl)-2H-1,2,3-triazol-4-yl]-2,3-dihydro-1H-quinazolin-4-one], the results for the IC50 (at tankyrase 1; in assay [1]; at tankyrase 2) were below 20 nM, below 1000 nM and below 20 nM, respectively.

As to `Cc1cccc2c1NC(c1n[nH]nc1-c1ccc(OCC(F)F)cc1)NC2=O` (stereo not drawn) [Compound Example 108, 2-[4-[4-(2,2-Difluoroethoxy)phenyl]-2H-1,2,3-triazol-5-yl]-8-methyl-2,3-dihydro-1H-quinazolin-4-one], the IC50 on tankyrase 1 is below 20 nM; in assay [1] it was 1000 to 10000 nM; at tankyrase 2, below 20 nM.

Regarding `COc1ccc(-c2n[nH]cc2C2NC(=O)c3ccccc3N2C)cc1` (stereo not drawn) [Compound Example 109, 2-[5-(4-Methoxyphenyl)-1H-pyrazol-4-yl]-1-methyl-2,3-dihydroquinazolin-4-one], the figures for the IC50 (at tankyrase 1; in assay [1]; at tankyrase 2) were below 20 nM, at least 10000 nM and below 20 nM, respectively.

`O=c1[nH]c(N2CCC3(CC2)CN(CCO)c2cc(F)cc(F)c23)nc2c1CCCC2` [Example 1]: the IC50 on tankyrase 1 was below 20 nM; in assay [1], 1000 to 10000 nM; at tankyrase 2 it was below 20 nM.

As to `COc1cc(F)c2c(c1)N(CCO)C(=O)C21CCN(c2nc3c(c(=O)[nH]2)CCCN3C)CC1` [Example 2], in assay [1], the IC50 was below 1000 nM.

Turning to `CN1CCCc2c1nc(N1CCC3(CC1)C(=O)N(CC#N)c1cc(F)cc(F)c13)[nH]c2=O` [Example 3], the IC50 in assay [1] is below 1000 nM.

For the molecule `COc1cc(F)c2c(c1)N(CC#N)C(=O)C21CCN(c2nc3c(c(=O)[nH]2)CCCN3C)CC1` [Example 4], the IC50 in assay [1] is below 1000 nM.

For the molecule `CN1CCN(c2cc(F)c3c(c2)N(C)C(=O)C32CCN(c3nc4c(c(=O)[nH]3)CCCN4C)CC2)CC1` [Example 5], the IC50 in assay [1] was below 1000 nM.

Take `CN1CCCc2c1nc(N1CCC3(CC1)C(=O)N(C)c1cc(OCC4COC4)cc(F)c13)[nH]c2=O` [Example 6]: in assay [1], the IC50 was below 1000 nM.

On to `CN1CCCc2c1nc(N1CCC3(CC1)C(=O)N(C)c1cc(OC4CCOCC4)cc(F)c13)[nH]c2=O` [Example 7], for which, in assay [1], the IC50 was below 1000 nM.

As to `CN1CCN(CCOc2cc(F)c3c(c2)N(CC(F)(F)F)C(=O)C32CCN(c3nc4c(c(=O)[nH]3)CCCN4C)CC2)CC1` [Example 8], the IC50 in assay [1] was below 1000 nM.

As to `CN1CCCc2c1nc(N1CCC3(CC1)C(=O)N(CC(F)(F)F)c1cc(OCC(=O)O)cc(F)c13)[nH]c2=O` [Example 9], the IC50 was below 20 nM at tankyrase 1, below 1000 nM in assay [1] and below 20 nM at tankyrase 2.

In the case of `CN1CCCc2c1nc(N1CCC3(CC1)C(=O)N(CC(F)(F)F)c1cc(OCc4nnn[nH]4)cc(F)c13)[nH]c2=O` [Example 10], the IC50 in assay [1] was below 1000 nM.

On to `CN1CCCc2c1nc(N1CCC3(CC1)C(=O)N(C)c1cc(N4CCC(C(=O)O)CC4)cc(F)c13)[nH]c2=O` [Example 11], for which the IC50 in assay [1] is below 1000 nM.

As for `CN1CCCc2c1nc(N1CCC3(CC1)C(=O)N(C)c1cc(N4CC(C(=O)O)C4)cc(F)c13)[nH]c2=O` [Example 12], the IC50 in assay [1] is below 1000 nM.

For the molecule `CN1CCCc2c1nc(N1CCC3(CC1)C(=O)N(C)c1c(OC4CCOC4)ccc(Cl)c13)[nH]c2=O` (stereo not drawn) [Example 13], the IC50 is below 20 nM on tankyrase 1, below 1000 nM in assay [1] and below 20 nM on tankyrase 2.

With `COc1ccc(Cl)c2c1N(CC(C)(C)O)C(=O)C21CCN(c2nc3c(c(=O)[nH]2)CCCN3C)CC1` [Example 14], the IC50 in assay [1] is below 1000 nM.

With `CN1CCCc2c(O)nc(N3CCC4(CC3)C(=O)N(CC(C)(C)O)c3cccc(F)c34)nc21` [Example 15], in assay [1], the IC50 was below 1000 nM.

`CN1CCCc2c(O)nc(N3CCC4(CC3)OC(=O)c3cc(-c5cnn(C)c5)cc(F)c34)nc21` [Example 16]: the IC50 in assay [1] is below 1000 nM.

Turning to `CN1CCCc2c1nc(N1CCC3(CC1)C(=O)N(C)c1cc(N4CCN(S(C)(=O)=O)CC4)cc(F)c13)[nH]c2=O` [Example 17], in assay [1], the IC50 is below 1000 nM.

With `COC(=O)N1CCN(c2cc(F)c3c(c2)N(C)C(=O)C32CCN(c3nc4c(c(=O)[nH]3)CCCN4C)CC2)CC1` [Example 18], the IC50 in assay [1] is below 1000 nM.

As for `C[C@@H]1CN(c2cc(F)c3c(c2)N(C)C(=O)C32CCN(c3nc4c(c(=O)[nH]3)CCCN4C)CC2)C[C@H](C)O1` [Example 19], in assay [1], the IC50 is below 1000 nM.

In the case of `COC1CCN(c2cc(F)c3c(c2)N(C)C(=O)C32CCN(c3nc4c(c(=O)[nH]3)CCCN4C)CC2)CC1` [Example 20], the IC50 in assay [1] is below 1000 nM.

For the molecule `CN1CCCc2c1nc(N1CCC3(CC1)C(=O)N(C)c1cc(N4CCC(C#N)CC4)cc(F)c13)[nH]c2=O` [Example 21], in assay [1], the IC50 is below 1000 nM.

(Values after patent US20210060016A1, “ANTICANCER AGENT” (JAPANESE FOUNDATION FOR CANCER RESEARCH, priority 2017, published 2021).)
